This is an account of results in PubChem BioAssay (NCI).

Test systems include EKVX NSCLC; HOP-92 NSCLC; HT29 colon; MALME-3M melanoma; MDA-MB-435; SK-MEL-28 melanoma; SK-MEL-5 melanoma; SW-620 colon; NCI-H460 lung; SK-OV-3 ovarian.
Common to all, as to assay: NCI anticancer screen, dose series, 48 h

Several values for one entry are separate records, joined by “and”; a condition that tells them apart may be missing. Identical values can stand only once.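 The compound was tested at five concentrations on cells cultured in 96-well plates, with a 48-hour exposure period. Here, GI50 denotes the concentration required for 50% inhibition of growth. The concentration for full growth arrest is given as TGI.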

Turning to `O=C(c1nc2ccccc2[nH]1)C1C(c2cccc([N+](=O)[O-])c2)C2CC3CCCCC3N2[C@@]12C(=O)Nc1cc(Cl)ccc12` (some centres undefined), the GI50 in the assay on EKVX NSCLC was 2.02 µM; with HOP-92 NSCLC, 1.37 µM; in the assay with HT29 colon, 1.64 µM; in the assay on MALME-3M melanoma, 1.42 µM; in the assay with MDA-MB-435 it was 1.65 µM; with SK-MEL-28 melanoma it was 1.81 µM. Besides, the GI50 in the assay with SK-MEL-5 melanoma is 1.69 µM; in the assay on SW-620 colon, 1.78 µM. The TGI in the assay on EKVX NSCLC came out at 6.31 µM; with HOP-92 NSCLC, 3.64 µM; in the assay on HT29 colon it was 4.35 µM; in the assay with MALME-3M melanoma, 2.96 µM; in the assay with MDA-MB-435, 3.19 µM; with SK-MEL-28 melanoma, 3.7 µM. Besides, the results for the TGI in the assay on SK-MEL-5 melanoma and in the assay with SW-620 colon were 3.1 µM and 4.31 µM, respectively.

With `CCOC(=O)Nc1ccc2nc(Sc3ccc(Cl)cc3)sc2c1`, the GI50 was 8.28 µM with EKVX NSCLC; 7.98 µM with HOP-92 NSCLC; 0.518 µM in the assay with HT29 colon; 5.7 µM in the assay with MALME-3M melanoma; 0.222 µM with MDA-MB-435; 1.01 µM with NCI-H460 lung. The GI50 in the assay with SK-MEL-28 melanoma was 13.5 µM; in the assay with SK-MEL-5 melanoma it was 1.18 µM; in the assay with SK-OV-3 ovarian, 4.8 µM; in the assay with SW-620 colon it was 0.488 µM. The TGI is over 82.6 µM in the assay on EKVX NSCLC; 65.4 µM in the assay with HOP-92 NSCLC; 13.3 µM with HT29 colon; 37.1 µM in the assay with MALME-3M melanoma; 0.561 µM with MDA-MB-435; over 76.9 µM in the assay with NCI-H460 lung. Also, the TGI with SK-MEL-28 melanoma is over 100 µM; in the assay with SK-MEL-5 melanoma, 5.07 µM; in the assay on SK-OV-3 ovarian it was over 95 µM; in the assay on SW-620 colon it was over 100 µM.

As for `CCOC(=O)CCC(NC(=O)c1ccc(Nc2nc3cc(N)cc(N)c3nc2-c2ccccc2)cc1)C(=O)OCC` (centres undefined), the GI50 in the assay on EKVX NSCLC is over 53.8 µM; in the assay on HOP-92 NSCLC, 10.8 µM; in the assay on HT29 colon, 83.6 µM; in the assay on MALME-3M melanoma, 8.1 µM; in the assay with MDA-MB-435, 29.9 µM; in the assay with NCI-H460 lung, over 29.3 µM. Also, the GI50 in the assay with SK-MEL-28 melanoma was 5.76 µM; with SK-MEL-5 melanoma, 12.6 µM; in the assay on SK-OV-3 ovarian, 22 µM; with SW-620 colon, 45.6 µM. Also, the TGI was over 100 µM in the assay with EKVX NSCLC; 29.7 µM with HOP-92 NSCLC; over 100 µM with HT29 colon; 15.8 µM in the assay on MALME-3M melanoma; over 60.4 µM in the assay on MDA-MB-435; over 69.3 µM in the assay on NCI-H460 lung. The TGI in the assay on SK-MEL-28 melanoma is 13.3 µM; in the assay on SK-MEL-5 melanoma it was 44.6 µM; in the assay with SK-OV-3 ovarian, 47.7 µM; in the assay on SW-620 colon, over 100 µM.

With `NC(=S)c1cn(C2OC(CO)C(O)C2O)c2ncnc(N)c12` (centres undefined), the GI50 with EKVX NSCLC is 0.25 µM; in the assay on HOP-92 NSCLC it was 0.154 µM; in the assay with HT29 colon it was 0.181 µM; with MALME-3M melanoma it was 0.0279 µM; in the assay with MDA-MB-435, 0.0633 µM; in the assay on NCI-H460 lung, 0.212 µM. Also, the GI50 was 0.112 µM with SK-MEL-28 melanoma, 0.223 µM in the assay on SK-MEL-5 melanoma and 0.105 µM with SW-620 colon. Also, the TGI with HT29 colon was found to be 3.96 µM; in the assay with MALME-3M melanoma it was 0.125 µM; in the assay on MDA-MB-435, 0.262 µM; with NCI-H460 lung, 8.15 µM; in the assay on SK-MEL-28 melanoma, 0.483 µM; with SK-MEL-5 melanoma, 0.975 µM. In addition, in the assay with SW-620 colon, the TGI worked out at 0.592 µM.

For `C[C@@H]1CC[C@H]2C(CN(C)CC3=C(C(F)(F)F)O[C@@H]4O[C@@]5(C)CC[C@H]6[C@H](C)CC[C@@H]3[C@@]46OO5)=C(C(F)(F)F)O[C@@H]3O[C@@]4(C)CC[C@@H]1[C@]32OO4`, the GI50 with HOP-92 NSCLC is 11.4 µM; with HT29 colon it was 2.76 µM; with MALME-3M melanoma, 1.06 µM; in the assay with MDA-MB-435, 0.549 µM; with NCI-H460 lung, 1.32 µM; with SK-MEL-28 melanoma, over 32.8 µM. The GI50 in the assay with SK-MEL-5 melanoma is 1.86 µM; in the assay on SK-OV-3 ovarian, over 100 µM; in the assay on SW-620 colon, 0.65 µM. Moreover, the TGI with HOP-92 NSCLC is over 94.4 µM; in the assay with HT29 colon, over 100 µM; with MALME-3M melanoma it was over 83.9 µM; with MDA-MB-435, 40.2 µM; in the assay with NCI-H460 lung, over 56.9 µM; in the assay on SK-MEL-28 melanoma it was over 100 µM. The figures for the TGI in the assay on SK-MEL-5 melanoma, with SK-OV-3 ovarian and in the assay on SW-620 colon were 18.9 µM, over 100 µM and 53.3 µM, respectively.

As for `COc1cc2cc(C(=O)N3C[C@H](CCl)c4c3cc(O)c3ccccc43)[nH]c2c(OC)c1OC`, the GI50 in the assay with EKVX NSCLC was 0.139 µM; in the assay with HT29 colon, 2.64 µM; with MALME-3M melanoma, 0.0259 µM; in the assay on MDA-MB-435, 0.0201 µM; in the assay with NCI-H460 lung, under 0.01 µM; with SW-620 colon, under 0.01 µM. Further, the TGI was 0.953 µM and 0.641 µM in the assay with EKVX NSCLC; 2.65 µM in the assay on HOP-92 NSCLC; 6.82 µM in the assay on HT29 colon; 0.442 µM and 0.0827 µM in the assay on MALME-3M melanoma; 0.634 µM and 0.0912 µM in the assay on MDA-MB-435; 4.34 µM and 23.5 µM in the assay on NCI-H460 lung. Moreover, the TGI in the assay with SK-MEL-28 melanoma was 1.99 µM; in the assay with SK-MEL-5 melanoma, 0.0439 µM.

Turning to `CCN1CCN(c2nc(NNC(=O)c3cccc(OC)c3)nc(N3CCN(C(c4ccccc4)c4ccccc4)CC3)n2)CC1`, the GI50 in the assay with EKVX NSCLC is 2.46 µM; in the assay with HOP-92 NSCLC, 1.29 µM; in the assay with MALME-3M melanoma, 1.52 µM; in the assay with MDA-MB-435, 1.7 µM; in the assay on NCI-H460 lung, 1.75 µM; with SK-MEL-28 melanoma, 1.8 µM. The figures for the GI50 in the assay with SK-MEL-5 melanoma, in the assay with SK-OV-3 ovarian and with SW-620 colon were 1.64 µM, 2.72 µM and 1.75 µM, respectively. The TGI in the assay with EKVX NSCLC was determined as 12.3 µM; with HOP-92 NSCLC, 3.33 µM; in the assay with MALME-3M melanoma it was 2.94 µM; in the assay with MDA-MB-435, 3.19 µM; with NCI-H460 lung, 3.39 µM; in the assay with SK-MEL-28 melanoma, 3.34 µM. Moreover, the TGI was found to be 3 µM with SK-MEL-5 melanoma, 7.08 µM in the assay on SK-OV-3 ovarian and 3.45 µM with SW-620 colon.

With `Cn1cc(C2=C(c3cn(C)c4cc(Cl)ccc34)C(=O)NC2=O)c2ccccc21`, the GI50 in the assay with HOP-92 NSCLC is 0.146 µM; with HT29 colon, 0.0928 µM; in the assay with MALME-3M melanoma it was 0.0878 µM; with MDA-MB-435, 0.0475 µM; in the assay on NCI-H460 lung, 0.0961 µM; with SK-MEL-28 melanoma, 3.59 µM. The results for the GI50 in the assay with SK-MEL-5 melanoma, with SK-OV-3 ovarian and with SW-620 colon were 0.102 µM, 0.101 µM and 0.1 µM, respectively. Moreover, the TGI is over 23 µM with HOP-92 NSCLC; over 9.62 µM in the assay on HT29 colon; 6.99 µM in the assay with MALME-3M melanoma; 0.12 µM in the assay with MDA-MB-435; over 8.9 µM in the assay on NCI-H460 lung; over 25 µM in the assay on SK-MEL-28 melanoma. The TGI with SK-MEL-5 melanoma is 2.39 µM; in the assay with SK-OV-3 ovarian, over 25 µM; in the assay on SW-620 colon it was over 25 µM.

Turning to `O=C(CN1CCN(c2cc3c(cc2F)c(=O)c(C(=O)O)cn3C2CC2)CC1)Nc1ccc(C(=O)/C=C/c2ccccc2)cc1`, the GI50 in the assay with HOP-92 NSCLC is 0.431 µM; in the assay on HT29 colon, 2.99 µM; in the assay on MALME-3M melanoma, 2.89 µM; in the assay on MDA-MB-435, 2.94 µM; in the assay with NCI-H460 lung, 3.17 µM; in the assay on SK-MEL-28 melanoma it was 18.8 µM. Further, the GI50 in the assay with SK-MEL-5 melanoma was 2.74 µM; in the assay on SK-OV-3 ovarian it was 27.3 µM; with SW-620 colon it was 3.8 µM. For the same compound, the TGI with HOP-92 NSCLC was 3.82 µM; in the assay on HT29 colon it was 10.3 µM; with MALME-3M melanoma, 8.87 µM; in the assay on MDA-MB-435, over 100 µM; in the assay on NCI-H460 lung, over 100 µM; in the assay on SK-MEL-28 melanoma, over 100 µM. Moreover, the TGI is 13 µM in the assay with SK-MEL-5 melanoma, over 100 µM in the assay on SK-OV-3 ovarian and over 100 µM in the assay on SW-620 colon.

On to `O=C(O)c1ccccc1/C=C1/Nc2ccccc2C1=O`, for which the TGI with EKVX NSCLC, in the assay on HOP-92 NSCLC, with HT29 colon, in the assay on MALME-3M melanoma, in the assay on MDA-MB-435 and with NCI-H460 lung was over 100 µM throughout. The TGI in the assay on SK-MEL-28 melanoma, with SK-OV-3 ovarian and in the assay on SW-620 colon was over 100 µM each time.

`CC1CCCc2c(CC3CC(=O)NC(=O)C3)nc(N)nc21` (centres undefined): the TGI with EKVX NSCLC, with HOP-92 NSCLC, in the assay with HT29 colon, in the assay with MALME-3M melanoma, in the assay on MDA-MB-435 and in the assay on SK-MEL-28 melanoma was over 100 µM throughout. For the same compound, the TGI with SK-MEL-5 melanoma, with SK-OV-3 ovarian and in the assay on SW-620 colon was over 100 µM in each case.

As for `COC(=O)C1=C(C)NC(C)=C(C(=O)OC)C1c1ccccc1[N+](=O)[O-]`, the GI50 is 64.3 µM in the assay with EKVX NSCLC; 23.3 µM in the assay with HOP-92 NSCLC; over 100 µM in the assay with HT29 colon; over 100 µM with MALME-3M melanoma; over 100 µM in the assay with MDA-MB-435; 97.6 µM in the assay on NCI-H460 lung. In addition, the GI50 in the assay on SK-MEL-28 melanoma, in the assay on SK-OV-3 ovarian and with SW-620 colon was over 100 µM throughout. Moreover, the TGI in the assay on EKVX NSCLC, in the assay with HOP-92 NSCLC, in the assay on HT29 colon, with MALME-3M melanoma, with MDA-MB-435 and in the assay on NCI-H460 lung was over 100 µM each time. Besides, the TGI with SK-MEL-28 melanoma, in the assay on SK-OV-3 ovarian and in the assay with SW-620 colon was over 100 µM throughout.
